≈ marks a conversion by molar mass, not a printed value. Like-named read-outs stand apart in the source and are kept apart here.
Columns and labels:
[1] = In vitro dissolution studies, USP type II apparatus; assay type: physicochemical; conditions: pH 6.8, 0.5% w/v SDS, within 2 h
Description: Dissolution studies were performed using USP type II dissolution apparatus under conditions simulating the fluids in different parts of the gastrointestinal tract (200 mL of pH 1.2 ± 0.02; 4.5 ± 0.02 buffer; and 900 mL of pH 6.8 ± 0.02 buffer) and blood/plasma (500 mL of pH 7.4 ± 0.02 buffer). […] The temperature was maintained at 37 ± 2 °C with a constant stirring rate of 75 rpm. At predetermined time intervals, 1000 μL samples were withdrawn from the dissolution media via a syringe and replenished with the same volume of fresh media (to retain the sink condition). The samples were immediately centrifuged at 15,373 × g in an ultracentrifuge. The supernatant was collected, diluted with mobile phase (methanol with 10 mM (pH 3.5) ammonium acetate buffer at a ratio of 52:48), and analysed via an HPLC–UV-based analytical method (mentioned in Sect. 3.2). The dissolution data obtained were contoured into different mathematical models (zero order; first order; and Higuchi square root kinetics) to determine the kinetics of drug release. The best fit model was analysed on the basis of the regression coefficient.

[2] = cited from earlier work
[3] = set-up: method as in doi:10.1002/sscp.202400110; conditions: Wistar rats; cited from earlier work
[4] = cited from earlier work; remark: listed apart in the source
[5] = Solubility of ACP in molten solid lipids; assay type: physicochemical
Description: The solid lipids were screened on the basis of biocompatibility and visual evaluation of the solubility of ACP in the lipids. Solid lipids such as GB (Compritol® 888 ATO), glyceryl di-stearate (Precirol ATO 5), glyceryl trimyristate (Dynasan 114), stearic acid, SP (Kolliwax® S) and cetyl palmitate were selected for solubility studies, as they were reported to be biocompatible. In the solubility studies, approximately 200 mg of each lipid was weighed separately and melted by heating to 5–10 °C above its corresponding melting point using a magnetic stirrer equipped with a temperature controlling program. ACP was added in small amounts to each lipid (in molten state), incrementally, up to a maximum of 100 mg under continuous stirring (150–200 rpm) while maintaining the temperature (5–10 °C above its corresponding melting point) until some amount of ACP was present in undissolved / powder form in the lipid. Further, the lipids in which the drug has similar solubility, the lipid solutions (ACP dissolved in lipid) were maintained at the same temperature for 60 min to observed for any precipitation of the drug.

[6] = Saturation solubility of ACP in buffers with 0.5% w/v SDS; assay type: physicochemical; conditions: buffer systems with 0.5% w/v SDS; pH 4.5; 6.8; and 7.4 in the presence of 0.5% w/v SDS
Description: The inherent hydrophobicity of ACP results in a solubility profile that is dependent on pH. […] It is very important to maintain sink condition during the in vitro dissolution study of any drug product. To maintain sink condition in the in vitro dissolution studies of hydrophobic drugs, various strategies can be employed, including, addition of surfactant; maintaining large volumes of dissolution media; addition of co-solvents; and use of a different dissolution apparatus like a flow through cell etc.. Of all the above strategies, addition of surfactants (either ionic or non-ionic) is the most commonly employed strategy. SDS, an anionic surfactant, is used to improve the wettability and saturation solubility of hydrophobic drugs in aqueous media. Researchers have used SDS in the range of 0.2 to 20% w/v to maintain the sink condition in the in vitro dissolution studies of formulations containing hydrophobic molecules. Thus, in order to achieve a sink condition, 0.5% w/v SDS was added in buffer systems having a pH of 4.5 and higher. […] Based on the above criteria, we have determined the minimum volume of pH 4.5, pH 6.8 and pH 7.4 (containing 0.5% w/v SDS) required to dissolve the entire drug dose administered in the formulation to be at least 130 mL.

[7] = Solubility of ACP in surfactant solutions; assay type: physicochemical; conditions: aqueous with cosolvent or surfactant or cyclodextrin
Description: Surfactants are primarily chosen on the basis of two criteria: firstly, the affinity of ACP towards the aqueous solution in the presence of the surfactant; and secondly, their capacity to form a stable emulsion when the solid lipid is combined with the aqueous phase. […] Further, on the basis of the solubility of ACP in various surfactants, separate placebo batches of SLNs were prepared using the selected surfactant(s), in order to assess their ability to stabilize the SLNs by evaluating the particle size via dynamic light scattering.

- ACP dissolved [1]: more than 80%
- solubility of ACP in lipid ([5]; in 200 mg of GB (glyceryl di-behenate)): ~ 40 mg
- solubility of ACP in lipid ([5]; in 200 mg of SP (stearyl palmitate)): > 80 mg
- solubility [6]: ≥ 770 µg/mL
- solubility ([7]; aqueous surfactant solution (Gelucire 44/14), Gelucire 44/14 0.15 % w/v, read-out: ACP solubility): 1.36 µg/mL (≈ 2.92 µM)
- solubility ([7]; aqueous surfactant solution (Gelucire 44/14), Gelucire 44/14 2 % w/v, read-out: ACP solubility): 2.27 µg/mL (≈ 4.88 µM)
- solubility ([7]; aqueous surfactant solution (Gelucire 48/16), Gelucire 48/16 0.15 % w/v, read-out: ACP solubility): 1.18 µg/mL (≈ 2.54 µM)
- solubility ([7]; aqueous surfactant solution (Gelucire 48/16), Gelucire 48/16 2 % w/v, read-out: ACP solubility): 2.96 µg/mL (≈ 6.36 µM)
- solubility ([7]; aqueous surfactant solution (PVP K30), Polyvinyl Pyrrolidone (PVP)- K30 0.15 % w/v, read-out: ACP solubility): 0.748 µg/mL (≈ 1.61 µM)
- solubility ([7]; aqueous surfactant solution (PVP K30), Polyvinyl Pyrrolidone (PVP)- K30 2 % w/v, read-out: ACP solubility): 2.27 µg/mL (≈ 4.88 µM)
- solubility ([7]; aqueous surfactant solution (Tween 80), 1% w/v solution of T80, read-out: solubility of ACP): < 0.1 µg/mL
- solubility ([7]; aqueous surfactant solution (Tween 80), Tween 80 (T80) 0.15 % w/v, read-out: ACP solubility): 0.0523 µg/mL (≈ 0.112 µM)
- solubility ([7]; aqueous surfactant solution (Tween 80), Tween 80 (T80) 2 % w/v, read-out: ACP solubility): 0.194 µg/mL (≈ 0.417 µM)
- solubility ([7]; aqueous surfactant solution (poloxamer 188), 1% w/v solution of P188, read-out: solubility of ACP): < 0.1 µg/mL
- solubility ([7]; aqueous surfactant solution (poloxamer 188), Poloxamer 188 (P188) 0.15 % w/v, read-out: ACP solubility): 0.0075 µg/mL (≈ 0.0161 µM)
- solubility ([7]; aqueous surfactant solution (poloxamer 188), Poloxamer 188 (P188) 2 % w/v, read-out: ACP solubility): 0.0202 µg/mL (≈ 0.0434 µM)
- solubility ([7]; aqueous surfactant solution (poloxamer 407), Poloxamer 407 (P407) 0.15 % w/v, read-out: ACP solubility): 0.209 µg/mL (≈ 0.45 µM)
- solubility ([7]; aqueous surfactant solution (poloxamer 407), Poloxamer 407 (P407) 2 % w/v, read-out: ACP solubility): 1.74 µg/mL (≈ 3.74 µM)
- solubility ([7]; aqueous surfactant solution (polyvinyl alcohol), Polyvinyl Alcohol (PVA) 0.15 % w/v, read-out: ACP solubility): 0.0137 µg/mL (≈ 0.0294 µM)
- solubility ([7]; aqueous surfactant solution (polyvinyl alcohol), Polyvinyl Alcohol (PVA) 2 % w/v, read-out: ACP solubility): 0.109 µg/mL (≈ 0.234 µM)
SMILES: CC#CC(=O)N1CCC[C@H]1c1nc(-c2ccc(C(=O)Nc3ccccn3)cc2)c2c(N)nccn12 [ACP, Acalabrutinib]
- solubility of ACP ([2]; 0.01 N HCl (pH = 2)): 3730 µg/mL
- solubility of ACP ([2]; 0.1 N HCl (pH = 1)): 29200 µg/mL
- solubility of ACP ([2]; acetate or citrate buffer (pH = 4.5)): 159 µg/mL
- maximum basic pKa [2]: 5.77
- solubility above pH 6 [2]: practically insoluble
- absolute oral bioavailability [3]: 22.83% ± 5.015%
- excreted in faeces [4]: 84%
- excreted in urine [4]: 12%
- unchanged ACP, share of the total amount eliminated [4]: less than 2%
